Results: PMC3679788, “Factors affecting antiretroviral pharmacokinetics in HIV-infected women with virologic suppression on combination antiretroviral therapy: a cross-sectional study” (BMC Infectious Diseases, 2013)
Where two headings read alike, the source gives them in different places. One block for each compound: values may come before it.

Experiments:
[1] = Plasma Cmin and Cmax of PI/NNRTI in HIV-positive women on cART (LC-MS/MS); type: in vivo, human; conditions: for Cmin Intra-patient CV median (IQR) / Cmax median ratio to historical population mean (IQR) / Cmax n (%) >1.5 Historical pop mean (percent of participants) / Cmin median ratio to historical population mean (IQR) / Cmin n (%) >1.5 historical pop Mean (percent of participants) / Cmax Inter-patient CV / Cmin Inter-patient CV / Cmin Study participants median (IQR) / Cmin Mean (SD) / Cmax at 5 h / Cmax / Cmax at 2 h / Cmax at 3 h: HIV-positive women; for Cmin Intra-patient CV median (IQR): 3 weekly visits; for Cmax Inter-patient CV: from individual median Cmax; for Cmin Inter-patient CV: from individual median Cmin; for Cmin Study participants median (IQR) / Cmin Mean (SD) / Cmax at 5 h / Cmax / Cmax at 2 h / Cmax at 3 h: plasma; for Cmin Study participants median (IQR) / Cmin Mean (SD): pre-dose, in ng/mL; for intra-patient variability for Cmax, in words / intra-patient variability for Cmin, in words / inter-patient variability (CV) for both Cmin and Cmax, in words: compared among the regimens; for intra-patient variability for Cmax, in words / inter-patient variability (CV) for both Cmin and Cmax, in words: nevirapine and lopinavir/ritonavir as BID; for intra-patient variability for Cmin, in words: nevirapine as BID; for Cmax at 5 h / Cmax / Cmax at 2 h / Cmax at 3 h: female, human, oral; for Cmax at 5 h: 600 mg, 5 hours post-dose; for Cmax at 2 h: 2 hours post-dose; for Cmax at 3 h: 3 hours post-dose
Protocol: Patients were asked to fast from midnight of the previous night. One hour before their scheduled morning dose the pre-dose blood collection was drawn (Cmin t) (alternative arrangements were made if the patient took their drugs in the evening). […] Concentrations of the PIs and the NNRTIs in plasma were measured simultaneously by sensitive and selective, validated high-performance liquid chromatography coupled to tandem mass-spectroscopy (LC-MS/MS). All samples were analyzed at the pharmacokinetic laboratory at the Ottawa Hospital Research Institute in Ottawa, Canada. The PK endpoints for each patient were determined by taking the median of the three weekly values for the Cmin and Cmax. The rationale for measuring drug levels at three separate time points was that there is potentially intra-individual variability in drug levels, especially for PIs. Using the median value for the endpoints eliminated outliers. The three drug level measurements allowed for the calculation of intra-patient variability. […] Next, for each subject the ratio of their median Cmin and Cmax for their main PI or NNRTI to this published drug level was calculated and used as the primary outcome as previously reported by Burger et al. […] Inter-patient variability of Cmin and Cmax for each antiretroviral drug was assessed by calculating the coefficient of variation (CV) using each individual’s median Cmin and Cmax. […] These values are summarized using median and IQR of the individual CVs. […] Finally, linear regression models were fit to assess correlates of the square root-transformed Cmin and Cmax ratios. […] The regression models included indicator variables to account for the different antiretroviral medications and each potential correlate was included separately in an adjusted model. Statistical analyses were performed using SAS Version 9.2 (SAS Institute, Cary, North Carolina, USA).

[2] = cited from earlier work
[3] = historical HIV population, atazanavir 400 mg QD; cited from earlier work
[4] = compared among the antiretrovirals
[5] = 400 mg, 400 mg QD, read-out: Cmax Study participants median (IQR)
[6] = 400 mg, 400 QD, read-out: Cmax Mean (SD)

Structure (SMILES): O=C1Nc2ccc(Cl)cc2[C@@](C#CC2CC2)(C(F)(F)F)O1 [Efavirenz, efavirenz]
Cmin Intra-patient CV median (IQR) ([1]; 600 QD): 17.7 (10.5-25.1)
Cmax median ratio to historical population mean (IQR) ([1]; 600 QD): 0.79 (0.57-1.27)
Cmax n (%) >1.5 Historical pop mean (percent of participants) ([1]; 600 QD): 4 (25.0%)
Cmin median ratio to historical population mean (IQR) ([1]; 600 QD): 0.95 (0.67-1.95)
Cmin n (%) >1.5 historical pop Mean (percent of participants) ([1]; 600 QD): 6 (37.5%)
Cmax Inter-patient CV ([1]; 600 QD): 52.4%
Cmin Inter-patient CV ([1]; 600 QD): 55.0%
Cmin Study participants median (IQR) ([1]; 600 mg QD): 1680 (1180–3450)
Cmin Mean (SD) ([1]; 600 QD): 2196.9 (1209.2)
intra-patient variability for Cmax, in words [1]: lowest intra-patient variability
intra-patient variability for Cmin, in words [1]: lowest intra-patient variability
Cmax at 5 h ([1]; 600 mg QD, read-out: Cmax Study participants median (IQR)): 3240 ng/mL
Cmax at 5 h ([1]; 600 QD, read-out: Cmax Mean (SD)): 3930 ng/mL
serum levels in women ([2]; in vivo): higher

Cmin Intra-patient CV median (IQR) ([1]; 400 BID boosted with ritonavir): 23.8 (12.8-75.8)
Cmin Intra-patient CV median (IQR) ([1]; 800 QD boosted with ritonavir): 63.4 (35.2- 115)
Cmax n (%) >1.5 Historical pop mean (percent of participants) ([1]; 400 BID boosted with ritonavir): 0 (0.0%)
Cmin n (%) >1.5 historical pop Mean (percent of participants) ([1]; 400 BID boosted with ritonavir): 3 (18.8%)
Cmax n (%) >1.5 Historical pop mean (percent of participants) ([1]; 800 QD boosted with ritonavir): 0 (0.0%)
Cmin n (%) >1.5 historical pop Mean (percent of participants) ([1]; 800 QD boosted with ritonavir): 3 (75.0%)
Cmax n (%) >1.5 Historical pop mean (percent of participants) ([1]; all doses of the drug pooled): 0 (0.0%)
Cmin n (%) >1.5 historical pop Mean (percent of participants) ([1]; all doses of the drug pooled): 6 (30.0%)
Cmax Inter-patient CV ([1]; 400 BID boosted with ritonavir): 32.8%
Cmax Inter-patient CV ([1]; 800 QD boosted with ritonavir): 39.8%
Cmin Inter-patient CV ([1]; 400 BID boosted with ritonavir): 44.7%
Cmin Inter-patient CV ([1]; 800 QD boosted with ritonavir): 72.5%
Cmin Study participants median (IQR) ([1]; 400 mg BID with ritonavir 100 mg): 6660 (4360–7710)
Cmin Study participants median (IQR) ([1]; 800 mg QD with ritonavir 200 mg): 6445 (2452–8260)
Cmin Mean (SD) ([1]; 400 BID boosted with ritonavir): 6370.0 (2846.4)
Cmin Mean (SD) ([1]; 800 QD boosted with ritonavir): 5356.2 (3882.3)
inter-patient variability (CV) for both Cmin and Cmax, in words [1]: least inter-patient variability
intra-patient variability for Cmax, in words [1]: lowest intra-patient variability
Cmax ([1]; 800 mg QD with ritonavir 200 mg, read-out: Cmax Study participants median (IQR)): 11700 ng/mL
Cmax ([1]; 800 QD boosted with ritonavir, read-out: Cmax Mean (SD)): 11200 ng/mL
Structure (SMILES): Cc1cccc(C)c1OCC(=O)N[C@@H](Cc1ccccc1)[C@@H](O)C[C@H](Cc1ccccc1)NC(=O)[C@H](C(C)C)N1CCCNC1=O [Lopinavir boosted with ritonavir, lopinavir]
increase in AUC in women ([2]; in vivo): approximately 20%

Structure (SMILES): COC(=O)N[C@H](C(=O)N[C@@H](Cc1ccccc1)[C@@H](O)CN(Cc1ccc(-c2ccccn2)cc1)NC(=O)[C@@H](NC(=O)OC)C(C)(C)C)C(C)(C)C [Atazanavir, atazanavir]
Cmin Intra-patient CV median (IQR) ([1]; 400 QD): 57.4 (40.5-86.7)
Cmax median ratio to historical population mean (IQR) ([1]; 400 QD): 0.59 (0.31-0.94)
Cmax n (%) >1.5 Historical pop mean (percent of participants) ([1]; 400 QD): 0 (0.0%)
Cmin median ratio to historical population mean (IQR) ([1]; 400 QD): 0.78 (0.35-1.37)
Cmin n (%) >1.5 historical pop Mean (percent of participants) ([1]; 400 QD): 2 (22.2%)
Cmax median ratio to historical population mean (IQR) ([1]; all doses of the drug pooled): 0.65 (0.44-0.87)
Cmax n (%) >1.5 Historical pop mean (percent of participants) ([1]; all doses of the drug pooled): 0 (0.0%)
Cmin median ratio to historical population mean (IQR) ([1]; all doses of the drug pooled): 0.95 (0.53-1.42)
Cmin n (%) >1.5 historical pop Mean (percent of participants) ([1]; all doses of the drug pooled): 6 (22.2%)
Cmax Inter-patient CV ([1]; 400 QD): 57.3%
Cmin Inter-patient CV ([1]; 400 QD): 78.0%
Cmin Study participants median (IQR) ([1]; 400 mg QD): 214 (95–373)
Cmin Mean (SD) ([1]; 400 QD): 250.4 (195.4)
inter-patient variability, in words [1, 4]: greatest observed inter-patient variability
ratios of both Cmin and Cmax versus historical reference values, in words [1, 4]: lowest ratios
Cmax at 2 h [1, 5]: 1870 ng/mL
Cmax at 2 h [1, 6]: 2000 ng/mL
Inter- and intra-patient variability, in words ([1]; particularly when not boosted with ritonavir): high
increase in AUC in women ([2]; in vivo): approximately 20%
Cmax Population mean [3]: 3150 ng/mL

Structure (SMILES): CC(C)(C)NC(=O)[C@@H]1C[C@@H]2CCCC[C@@H]2CN1C[C@@H](O)[C@H](Cc1ccccc1)NC(=O)[C@H](CC(N)=O)NC(=O)c1ccc2ccccc2n1 [saquinavir]
serum levels in women versus men ([2]; in vivo): significantly higher in women than in men

Structure (SMILES): Cc1ccnc2c1NC(=O)c1cccnc1N2C1CC1 [Nevirapine, nevirapine]
Cmin Intra-patient CV median (IQR) ([1]; 200 BID): 13.9 (10.2-27.8)
Cmin Intra-patient CV median (IQR) ([1]; 400 QD): 21.3 (12.1-44.9)
Cmax median ratio to historical population mean (IQR) ([1]; 200 BID): 0.96 (0.84-1.37)
Cmax n (%) >1.5 Historical pop mean (percent of participants) ([1]; 200 BID): 2 (18.2%)
Cmin median ratio to historical population mean (IQR) ([1]; 200 BID): 1.41 (0.91-1.93)
Cmin n (%) >1.5 historical pop Mean (percent of participants) ([1]; 200 BID): 5 (45.5%)
Cmax median ratio to historical population mean (IQR) ([1]; 400 QD): 0.96 (0.72-1.40)
Cmax n (%) >1.5 Historical pop mean (percent of participants) ([1]; 400 QD): 1 (12.5%)
Cmin median ratio to historical population mean (IQR) ([1]; 400 QD): 2.08 (0.90-2.53)
Cmin n (%) >1.5 historical pop Mean (percent of participants) ([1]; 400 QD): 5 (62.5%)
Cmax median ratio to historical population mean (IQR) ([1]; all doses of the drug pooled): 0.96 (0.81-1.37)
Cmax n (%) >1.5 Historical pop mean (percent of participants) ([1]; all doses of the drug pooled): 3 (15.8%)
Cmin median ratio to historical population mean (IQR) ([1]; all doses of the drug pooled): 1.62 (0.91-2.32)
Cmin n (%) >1.5 historical pop Mean (percent of participants) ([1]; all doses of the drug pooled): 10 (52.6%)
Cmax Inter-patient CV ([1]; 200 BID): 37.8%
Cmax Inter-patient CV ([1]; 400 QD): 39.9%
Cmin Inter-patient CV ([1]; 200 BID): 45.4%
Cmin Inter-patient CV ([1]; 400 QD): 57.0%
Cmin Study participants median (IQR) ([1]; 200 mg BID): 5270 (3380–7190)
Cmin Study participants median (IQR) ([1]; 400 mg QD): 5995 (2590–7275)
Cmin Mean (SD) ([1]; 200 BID): 5693.6 (2586.8)
Cmin Mean (SD) ([1]; 400 QD): 5027.9 (2867.2)
Cmin ratio to published population mean, in words [1, 4]: highest ratios
inter-patient variability (CV) for both Cmin and Cmax, in words [1]: least inter-patient variability
intra-patient variability for Cmax, in words [1]: lowest intra-patient variability
intra-patient variability for Cmin, in words [1]: lowest intra-patient variability
Cmax at 2 h ([1]; 200 mg, 200 mg BID, read-out: Cmax Study participants median (IQR)): 5510 ng/mL
Cmax at 2 h ([1]; 200 mg, 200 BID, read-out: Cmax Mean (SD)): 6490 ng/mL
Cmax at 2 h [1, 5]: 6400 ng/mL
Cmax at 2 h [1, 6]: 6920 ng/mL
exposure in pregnant women ([2]; in vivo): lower
serum levels in women ([2]; in vivo): higher

Structure (SMILES): COC(=O)N[C@H](C(=O)N[C@@H](Cc1ccccc1)[C@@H](O)CN(Cc1ccc(-c2ccccn2)cc1)NC(=O)[C@@H](NC(=O)OC)C(C)(C)C)C(C)(C)C [Atazanavir boosted with ritonavir, atazanavir]
Cmin Intra-patient CV median (IQR) ([1]; 300 QD boosted with ritonavir): 26.3 (15.6-56.1)
Cmax median ratio to historical population mean (IQR) ([1]; 300 QD boosted with ritonavir): 0.66 (0.51-0.85)
Cmax n (%) >1.5 Historical pop mean (percent of participants) ([1]; 300 QD boosted with ritonavir): 0 (0.0%)
Cmin median ratio to historical population mean (IQR) ([1]; 300 QD boosted with ritonavir): 0.97 (0.77-1.42)
Cmin n (%) >1.5 historical pop Mean (percent of participants) ([1]; 300 QD boosted with ritonavir): 4 (22.2%)
Cmax Inter-patient CV ([1]; 300 QD boosted with ritonavir): 41.4%
Cmin Inter-patient CV ([1]; 300 QD boosted with ritonavir): 65.6%
Cmin Study participants median (IQR) ([1]; 300 mg QD with ritonavir 100 mg): 835 (663–1220)
Cmin Mean (SD) ([1]; 300 QD boosted with ritonavir): 1065.6 (699.2)
Cmax at 3 h ([1]; 300 mg QD with ritonavir 100 mg, read-out: Cmax Study participants median (IQR)): 3430 ng/mL
Cmax at 3 h ([1]; 300 QD boosted with ritonavir, read-out: Cmax Mean (SD)): 3530 ng/mL

Structure (SMILES): CC(C)CN(C[C@@H](O)[C@H](Cc1ccccc1)NC(=O)O[C@H]1CO[C@H]2OCC[C@H]21)S(=O)(=O)c1ccc(N)cc1 [darunavir]
increase in AUC in women ([2]; women versus men, product monographs): approximately 20%
